Where no end group is shown, it is not given here.
Key:
[1] = tested on: rejection in skin transplantation; assay: Skin transplantation test, C57Black/6N skin to back of BALB/c mouse; assay type: in vivo; settings: 50 μg peptide/0.1 ml/mouse subcutaneously
Protocol: Then, the cellular immunity-inhibition activity of the peptide was examined from the viewpoint of activity for preventing rejection in skin transplantation.
The peptide of the present invention was administered to mice who have received skin transplantation according to the schedule shown in Table 6.

[2] = tested on: Pancreatic epithelial cells; assay: RT-PCR gene pattern change after 7 hr peptide treatment, pancreatic epithelial cells; assay type: cell-based; settings: pancreatic epithelial sample
Protocol: (§1) In order to examine influences at a gene level of the peptide on normal cells, RT-PCR was performed by adding the peptide artificially synthesized in Example 3 to the normal cells.
(§2) (1) Normal cells were treated with the artificially synthesized peptide for 7 hr as follows:
(§3) Then, total RNA was extracted from the above-treated normal cells, untreated normal cells, and squamous-cell carcinoma cells by using an RNA extraction kit (QIAGEN). The numbers of the treated cells and the untreated cells were the same.
(§4) Reverse transcription was performed by using 30 μg of each extracted total RNA to generate cDNA pools.
(§5) PCR was conducted using each of the cDNA pools as templates.
(§6) The condition for the PCR was as follows:
(§7) (2) Each of the PCR products was applied to electrophoresis and detected by using a fluorescence label.

Skin fibroblast cell = assay: RT-PCR gene pattern change after 7 hr peptide treatment, skin fibroblast cell; assay type: cell-based; settings: 11-amino acid primer (full sequence), skin fibroblast sample
Protocol: as §1, §2, §3, §4, §5, §6, §7

Normal lymphocytes = assay: Exhaustive gene analysis of 55000 genes by DNA chip system (Codelink System); assay type: cell-based; settings: normal lymphocytes treated vs untreated, Codelink slide 55000 genes
Protocol: Characteristics of the peptide of the present invention were clarified by conducting the analysis described below in order to examine effects of the peptide on gene expression of normal cells.
Normal lymphocytes were treated with the peptide of the present invention as in Examples 4 and 5, and the gene expression was compared to that of untreated lymphocytes by using a DNA chip system (Codelink System). In this examination, cRNA derived from bacteria was used as a positive control. Total RNA was extracted by using the QIAGEN RNA extraction kit used in Example 5. The total RNA (5 to 10 μg) was subjected to reverse transcription using an oligo-dT primer having a T7 RNA polymerase promoter region as a reverse primer to generate a pool of cDNAs complementary to the mRNAs. The condition for the reverse transcription was the same as that in Example 5. […] The amount of the cRNA was measured with a spectrophotometer to confirm at least 10 μg of the cRNA. […]
The hybridization chamber was removed and the plate was washed at 46° C. for 1 hr. The hybridization was detected with Cy5-streptavidin (1:500 dilution, at room temperature for 30 min). […]
(5) The result was analyzed by exclusive software for the Codelink analysis. […]

[3] = tested on: peripheral blood monocytes; assay: Effect of the artificially synthesized peptide on total mRNA amount of peripheral blood monocytes; assay type: cell-based, human; design: reduction ratio: concentration or dose not given beside the values; settings: peptide 7 hr; for post total RNA: 1 × 10^7 monocytes
Protocol: (b) The peptide obtained in Example 3 was added to a culture medium (10 to 100 μg peptide/1×10^7 monocytes) for human normal peripheral blood monocytes extracted from subjects shown in Table 5 below, and they were cocultured for 7 hr. Then, total mRNA was extracted from the monocytes, and the amount of the total mRNA was measured and compared to that of the total mRNA before the treatment with the peptide.

[4] = tested on: human normal peripheral blood monocyte; assay: Influence of the artificially synthesized peptide on normal cell genes: coculture 7 hr, DNA chip system (Clontech), about 55000 human genes (Table 4); assay type: cell-based; settings: monocytes, 7 hr
Protocol: (a) The peptide obtained in Example 3 was added to a human normal peripheral blood monocyte culture system (10 to 100 μg peptide/1×10^6 to 1×10^7 monocytes), and they were cocultured for 7 hr. Then, mRNA was extracted from the monocytes and was applied to analysis for up-regulation and down-regulation in respect to about 55000 human genes by using DNA chip system (Clontech).

Kidney mesangium cell = assay: RT-PCR gene pattern change after 7 hr peptide treatment, kidney mesangium cell; assay type: cell-based; settings: 11-amino acid primer (full sequence), kidney mesangium sample
Protocol: as §1, §2, §3, §4, §5, §6, §7

[5] = tested on: peripheral blood monocytes; assay: RT-PCR gene pattern change after 7 hr peptide treatment, peripheral blood monocytes; assay type: cell-based, human
Protocol: as §1, §2, §3, §4, §5, §6, §7

[6] = subject eight, healthy subject (smoker)
[7] = subject five, healthy subject (side-stream smoke)
[8] = subject four, cancer patient received chemotherapy and radiotherapy
[9] = subject one, healthy subject (side-stream smoke)
[10] = subject seven, healthy subject (smoker)
[11] = subject two, healthy subject (side-stream smoke)

In the case of “QPQFGRRMESK [artificially synthesized peptide]”, the “delay of skin rejection versus control” value ([1]; intermittent) is reported as 5 days, the “rejection in skin transplantation / skin graft survival” value ([1]; intermittent) is reported as “the rejection in the skin transplantation was suppressed and skin graft survival was prolonged” and the “skin rejection occurred, days after the transplantation” value ([1]; intermittent, 6 mice, control 7 days) is reported as 12 days. The “survival of the transplanted skin of one mouse after the transplantation” value ([1]; one mouse) was 14 days, the “gene band pattern by PCR before and after peptide treatment” value (shortened to “gene band pattern”) ([2]; 7-amino acid primer (partial sequence)) was “a difference in the band patterns was observed” and the “gene band pattern” value ([2]; 11-amino acid primer (full sequence)) was “a difference in a position having a high concentration was observed”. The “gene band pattern” value (Skin fibroblast cell) was “a difference in the band patterns was observed”, the “expression status of cancer-related genes” value (Normal lymphocytes) was “Cancer-inducing expression status of cancer-related genes was observed” and the “post total RNA” value ([3]; subject eight, healthy subject (smoker), pre 45.875 μg/ml) was 0.958 µg/mL. For the same sequence, the post/pre [3, 6] was 2%, the reduction ratio [3, 6] was 98% and the “post total RNA” value ([3]; subject five, healthy subject (side-stream smoke), pre 58.076 μg/ml) was 19.551 µg/mL. For the same sequence, the post/pre [3, 7] was 33.6%, the reduction ratio [3, 7] was 66.4% and the “post total RNA” value ([3]; subject four, cancer patient received chemotherapy and radiotherapy, pre 8.078 μg/ml) was 1.757 µg/mL. The post/pre [3, 8] was 21.7%, the reduction ratio [3, 8] was 78.3% and the “post total RNA” value ([3]; subject one, healthy subject (side-stream smoke), pre 69.622 μg/ml) was 7.735 µg/mL. The post/pre [3, 9] was 11.1%, the reduction ratio [3, 9] was 88.9% and the “post total RNA” value ([3]; subject seven, healthy subject (smoker), pre 20.779 μg/ml) was 9.188 µg/mL. For the same sequence, the post/pre [3, 10] was 44.2%, the reduction ratio [3, 10] was 55.8% and the “post total RNA” value ([3]; subject six, healthy subject, pre 52.318 μg/ml) was 17.681 µg/mL. For the same sequence, the post/pre ([3]; subject six, healthy subject) was 33.7%, the reduction ratio ([3]; subject six, healthy subject) was 66.3% and the “post total RNA” value ([3]; subject three, healthy subject, pre 61.145 μg/ml) was 16.562 µg/mL. The post/pre ([3]; subject three, healthy subject) was 27%, the reduction ratio ([3]; subject three, healthy subject) was 73% and the “post total RNA” value ([3]; subject two, healthy subject (side-stream smoke), pre 66.804 μg/ml) was 14.742 µg/mL. For the same sequence, the post/pre [3, 11] was 22%, the reduction ratio [3, 11] was 78% and the “Expression of TNF” value [4] was “not enhanced”. For the same sequence, the “expression of cell growth factor such as a platelet-derived growth factor” value [4] was “enhanced”, the “expression of genes relating to anti-tumor immunity” value [4] was “highly suppressed” and the “expression of most of important factors as an operating factor for the humoral immunity mechanism” value [4] was “enhanced”. The “Expression of a gene relating to inhibition of metastasis of breast cancer, suppressed to” value ([4]; fraction of baseline) was 1/60, the “expression of RAS suppressor protein gene, suppressed to” value ([4]; fraction of baseline) was 1/43 and the “expression of a gene relating to inhibition of leukemia, suppressed to” value ([4]; fraction of baseline) was 1/43. For the same sequence, the “gene band pattern” value (Kidney mesangium cell) was “a difference in a position having a high concentration was observed”, the “gene band pattern” value ([5]; 11-amino acid primer (full sequence), peripheral blood sample (H.S.), 7 hr) was “a difference in the band patterns was observed” and the “gene pattern change by PCR after peptide treatment” value ([5]; 11-amino acid primer, sample of lanes 2 and 3 of FIG. 2B, healthy young man in twenties) was “gene mutation was hardly induced”.
